These results are taken from PMC10093438, “α-Mangostin Promotes In Vitro and In Vivo Degradation of Androgen Receptor and AR-V7 Splice Variant in Prostate Cancer Cells” (Cancers, 2023).

This assay concerns the target T1, BiP (GRP78) (Homo sapiens, UniProt P11021).
T1 construct: gene HSPA5; recombinant His-GST-BiP (BiP-N-His-GST), expressed in E. coli
Kind of assay: SPR (Biacore T200, His-capture plus amine coupling on NTA chip). The class given is binding.

pKd: −log10 of the molar value.

T1 sequence (P11021 19-654): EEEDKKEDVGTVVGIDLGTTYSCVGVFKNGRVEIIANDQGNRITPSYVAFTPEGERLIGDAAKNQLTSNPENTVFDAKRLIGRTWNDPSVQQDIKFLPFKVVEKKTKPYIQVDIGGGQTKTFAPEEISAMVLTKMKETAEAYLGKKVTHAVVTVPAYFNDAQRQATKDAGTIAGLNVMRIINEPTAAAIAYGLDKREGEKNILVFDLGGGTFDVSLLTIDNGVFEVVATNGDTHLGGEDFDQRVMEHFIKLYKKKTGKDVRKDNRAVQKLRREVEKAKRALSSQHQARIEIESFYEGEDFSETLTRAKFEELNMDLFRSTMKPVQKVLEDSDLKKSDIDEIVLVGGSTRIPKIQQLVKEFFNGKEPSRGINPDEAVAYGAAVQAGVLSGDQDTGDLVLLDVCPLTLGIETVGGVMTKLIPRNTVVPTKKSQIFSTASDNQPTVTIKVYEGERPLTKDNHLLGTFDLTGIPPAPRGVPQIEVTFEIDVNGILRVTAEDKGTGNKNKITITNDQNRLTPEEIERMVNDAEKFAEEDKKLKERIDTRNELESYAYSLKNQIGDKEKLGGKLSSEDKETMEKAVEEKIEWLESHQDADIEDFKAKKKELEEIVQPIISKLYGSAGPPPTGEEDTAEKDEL

In the case of `COc1c(O)cc2oc3cc(O)c(CC=C(C)C)c(O)c3c(=O)c2c1CC=C(C)C` [α-Mangostin], the pKd is 4.66.
